According to ChEMBL document CHEMBL1132818, “Use of bicuculline, a GABA antagonist, as a template for the development of a new class of ligands showing positive allosteric modulation of the GABA(A) receptor” (Bioorg Med Chem Lett, 2000):

What was measured:
[1] = biological target: T1, GABA-A receptor; anion channel (Rattus norvegicus) (UniProt O09028+P15431+P18506+P18508+P19969+P20236+P23574+P23576+P28471+P28473+P30191+P62813+P63079+P63138+Q91ZM7+Q9ES14); assay: In vitro displacement of [35S]TBPS from Gamma-aminobutyric acid A receptor of rat brain membrane preparations at 100 uM
[2] = biological target: T1, GABA-A receptor; anion channel (Rattus norvegicus); assay: Displacement of [3H]flunitrazepam from GABA-A receptor of rat brain membrane preparations at 100 uM
[3] = biological target: T1, GABA-A receptor; anion channel (Rattus norvegicus); assay: In vitro displacement of [3H]muscimol from Gamma-aminobutyric acid A receptor of rat brain membrane preparations at 100 uM
[4] = biological target: T2, GABA-A receptor; alpha-1/beta-2/gamma-2 (Rattus norvegicus) (UniProt P18508+P62813+P63138); assay: (§1) Percent GABA current elicited in Xenopus laevis oocytes expressing rat GABA-A alpha-1-beta-2-gamma-2 subunits at 100 uM [(-)inhibition, (+)stimulation]; assay type: functional, cell-based; settings: Oocyte
[5] = biological target: T1, GABA-A receptor; anion channel (Rattus norvegicus); assay: In vitro displacement of [35S]TBPS from Gamma-aminobutyric acid A receptor of rat brain membrane preparations at 10 uM
[6] = biological target: T1, GABA-A receptor; anion channel (Rattus norvegicus); assay: Displacement of [3H]flunitrazepam from GABA-A receptor of rat brain membrane preparations at 10 uM
[7] = biological target: T1, GABA-A receptor; anion channel (Rattus norvegicus); assay: In vitro displacement of [3H]muscimol from Gamma-aminobutyric acid A receptor of rat brain membrane preparations at 10 uM
[8] = biological target: T1, GABA-A receptor; anion channel (Rattus norvegicus); settings: Brain, Membrane, 10 nM
Description: Displacement of [3H]flunitrazepam from GABA-A receptor of rat brain membrane preparations at 10 nM

[9] = biological target: T2, GABA-A receptor; alpha-1/beta-2/gamma-2 (Rattus norvegicus); settings: Oocyte, 1 uM
Description: Percent GABA current elicited in Xenopus laevis oocytes expressing rat GABA-A alpha-1-beta-2-gamma-2 subunits at 1 uM [(-)inhibition, (+)stimulation]

[10] = biological target: GABA-A receptor; anion channel; assay: Displacement of [3H]flunitrazepam from GABA-A receptor of rat cerebellar tissue; assay type: protein-complex assay
[11] = biological target: GABA-A receptor; anion channel; assay: Displacement of [3H]flunitrazepam from GABA-A receptor of rat forebrain tissue
[12] = biological target: T1, GABA-A receptor; anion channel (Rattus norvegicus); assay: In vitro displacement of [3H]-muscimol from Gamma-aminobutyric acid A receptor of rat brain membrane preparations at 100 uM (Limited solubility)
[13] = biological target: T1, GABA-A receptor; anion channel (Rattus norvegicus); assay: Displacement of [3H]flunitrazepam from GABA-A receptor of rat brain membrane preparations at 100uM, Limited solubility
[14] = biological target: T1, GABA-A receptor; anion channel (Rattus norvegicus); assay: In vitro displacement of [35S]TBPS from Gamma-aminobutyric acid A receptor of rat brain membrane preparations at 100 uM (Limited solubility)
[15] = biological target: T2, GABA-A receptor; alpha-1/beta-2/gamma-2 (Rattus norvegicus); assay: Percent GABA current elicited in Xenopus laevis oocytes expressing rat GABA-A alpha-1-beta-2-gamma-2 subunits at 50 uM [(-)inhibition, (+)stimulation]; assay type: functional, cell-based; settings: Oocyte
[16] = as §1; assay type: functional, Oocyte
[17] = biological target: T2, GABA-A receptor; alpha-1/beta-2/gamma-2 (Rattus norvegicus); assay: Percent GABA current elicited in Xenopus laevis oocytes expressing rat GABA-A alpha-1-beta-2-gamma-2 subunits at 10 uM [(-)inhibition, (+)stimulation]; assay type: functional, cell-based; settings: Oocyte

`COc1cc2c(cc1OC)[C@@H]([C@@H]1C=C(C)C(=O)O1)N(C(=O)OCc1ccccc1)CC2` showed a Displacement [1] of 11%, a Displacement [2] of 4% and a Displacement [3] of -1%. It also gave a GABA current [4] of 24%.
`COc1cc2c(cc1OC)[C@@H]([C@H]1C=C(C)C(=O)O1)N(C)CC2` showed a Displacement [1] of 4%, a Displacement [2] of 12% and a Displacement [3] of -1%. It also gave a GABA current [4] of -10%.
Work on `COc1cc2c(cc1OC)[C@@H]([C@H]1C=CC(=O)O1)N(C(=O)OCc1ccccc1)CC2` yielded a Displacement [5] of 5%, a Displacement [1] of 50% and a Displacement [6] of 15%. It also gave a Displacement [2] of 51%, a Displacement [7] of 7% and a Displacement [3] of 10%. The GABA current [4] was 43%.
Compound `CN1C(=O)CN=C(c2ccccc2)c2cc(Cl)ccc21` has a Displacement [5] of 25%, a Displacement [3] of -13% and a Displacement [8] of 33%. It also gave a GABA current [9] of 300%.
Compound `CC1=C[C@H]([C@@H]2c3cc4c(cc3CCN2C)OCO4)OC1=O` has a Displacement [5] of 1%, a Displacement [1] of 3% and a Displacement [6] of 6%. It also gave a Displacement [2] of 30%, a Displacement [3] of 5% and a GABA current [4] of -7%.
`O=C1C=C[C@@H]([C@@H]2c3ccccc3CCN2C(=O)OCc2ccccc2)O1` gave a Displacement [5] of 14%, a Displacement [1] of 82% and a Displacement [6] of 93%. The Displacement [7] was -12%, the Displacement [3] was -13% and the GABA current [4] was 281%.
`COc1cc2c(cc1OC)[C@@H]([C@@H]1C=CC(=O)O1)N(C(=O)OCc1ccccc1)CC2` gave a Displacement [5] of 5%, a Displacement [1] of 47% and a Displacement [6] of 5%. For the same compound, the Displacement [2] was 15%, the Displacement [3] was -1% and the GABA current [4] was 20%.
Work on `CC1=C[C@@H]([C@@H]2c3ccccc3CCN2C(=O)OCc2ccccc2)OC1=O` yielded a Displacement [5] of 16%, an IC50 [10] of 7 µM and an IC50 [11] of 12 µM. For the same compound, the Displacement [6] was 43%, the Displacement [7] was -7% and the Displacement [12] was “Insoluble”. It also gave a GABA current [4] of 130%.
With `CC1=C[C@H]([C@@H]2c3ccccc3CCN2C(=O)OCc2ccccc2)OC1=O` the Displacement [5] was 20%, the IC50 [10] was 17 µM and the IC50 [11] was 25 µM. For the same compound, the Displacement [6] was 27%, the Displacement [13] was “Insoluble” and the Displacement [7] was -4%. The Displacement [12] was “Insoluble” and the GABA current [4] was 208%.
For `O=C1C=C[C@@H]([C@@H]2c3cc4c(cc3CCN2C(=O)OCc2ccccc2)OCO4)O1`, the Displacement [5] was 19%, the Displacement [14] was “Insoluble” and the Displacement [6] was 20%. The Displacement [7] was -5%, the Displacement [12] was “Insoluble” and the GABA current [15] was 215%.
Work on `CC1=C[C@@H]([C@@H]2c3cc4c(cc3CCN2C)OCO4)OC1=O` yielded a Displacement [1] of 3%, a Displacement [2] of 21% and a Displacement [3] of 3%. The GABA current [16] was -3%.
For `COc1cc2c(cc1OC)[C@@H]([C@@H]1C=C(C)C(=O)O1)N(C)CC2`, the Displacement [1] was 2%, the Displacement [2] was 8% and the Displacement [3] was 4%. It also gave a GABA current [4] of -8%.
In the case of `O=C1C=C[C@H]([C@@H]2c3ccccc3CCN2C(=O)OCc2ccccc2)O1`, the Displacement [5] is reported as 18%, the Displacement [1] is reported as 85% and the Displacement [6] is reported as 51%. The Displacement [7] was -9%, the Displacement [3] was -2% and the GABA current [4] was 225%.
In the case of `O=C1C=C[C@H]([C@@H]2c3cc4c(cc3CCN2C(=O)OCc2ccccc2)OCO4)O1`, the Displacement [5] is reported as 18%, the Displacement [14] is reported as “Insoluble” and the Displacement [6] is reported as 27%. The Displacement [7] was -7%, the Displacement [12] was “Insoluble” and the GABA current [15] was 128%.
With `CN1CCc2cc3c(cc2[C@H]1[C@@H]1OC(=O)c2c1ccc1c2OCO1)OCO3` the Displacement [1] was -1%, the Displacement [2] was 7% and the Displacement [7] was 45%. For the same compound, the GABA current [4] was -100%.
In the case of `COc1cc2c(cc1OC)[C@@H]([C@H]1C=C(C)C(=O)O1)N(C(=O)OCc1ccccc1)CC2`, the Displacement [1] is reported as 63%, the Displacement [2] is reported as 31% and the Displacement [3] is reported as -23%. The GABA current [4] was 60%.
For `O=C1CC[C@@H]([C@@H]2c3ccccc3CCN2C(=O)OCc2ccccc2)O1`, the Displacement [5] was 11%, the IC50 [10] was 0.06 µM and the IC50 [11] was 0.16 µM. It also gave a Displacement [1] of 82%, a Displacement [6] of 96% and a Displacement [7] of -18%. The Displacement [3] was -2%, the GABA current [17] was 111% and the GABA current [4] was 351%.
